Columns and labels:
[1] = biological target: T1, Broad substrate specificity ATP-binding cassette transporter ABCG2 (Homo sapiens, UniProt Q9UNQ0); experiment: TP_TRANSPORTER: Transepithelial Transport (basal to apical) in OATP1B1/BCRP double transfected MDCKII cells; assay type: functional, cell-based; conditions: dog, mdck-ii
T1 sequence (Q9UNQ0 whole entry): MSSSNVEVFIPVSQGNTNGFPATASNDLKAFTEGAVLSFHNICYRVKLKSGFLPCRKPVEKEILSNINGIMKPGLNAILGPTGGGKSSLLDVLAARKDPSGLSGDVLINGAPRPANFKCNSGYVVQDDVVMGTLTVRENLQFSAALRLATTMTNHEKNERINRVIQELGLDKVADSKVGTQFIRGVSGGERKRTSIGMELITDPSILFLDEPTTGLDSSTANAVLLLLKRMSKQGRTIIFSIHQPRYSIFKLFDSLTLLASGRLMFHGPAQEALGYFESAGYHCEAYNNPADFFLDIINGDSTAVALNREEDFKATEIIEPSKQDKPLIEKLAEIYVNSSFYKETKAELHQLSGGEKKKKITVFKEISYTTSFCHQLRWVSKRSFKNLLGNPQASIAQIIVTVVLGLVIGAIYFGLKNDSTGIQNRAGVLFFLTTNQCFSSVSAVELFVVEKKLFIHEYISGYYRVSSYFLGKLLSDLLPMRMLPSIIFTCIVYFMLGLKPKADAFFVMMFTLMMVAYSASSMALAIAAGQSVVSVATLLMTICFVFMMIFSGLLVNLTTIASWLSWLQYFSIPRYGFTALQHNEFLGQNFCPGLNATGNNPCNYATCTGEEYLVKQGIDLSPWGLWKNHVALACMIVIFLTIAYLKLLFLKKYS

[2] = biological target: Canalicular multispecific organic anion transporter 1/Solute carrier organic anion transporter family member 1B1 (Homo sapiens, UniProt Q92887+Q9Y6L6); experiment: TP_TRANSPORTER: Transepithelial Transport (basal to apical) in OATP1B1/MRP2 double transfected MDCKII cells; assay type: functional, cell-based; conditions: dog, mdck-ii

| Compound | Activity [1] | Activity [2] |
| --- | --- | --- |
| C[C@]12CC[C@@H]3c4ccc(O)cc4CC[C@H]3[C@@H]1CC[C@@H]2O[C@@H]1O[C@H](C(=O)O)[C@@H](O)[C@H](O)[C@H]1O [ESTRADIOL 17B GLUCURONIDE] | substrate [(+)] | substrate [(+)] |
| C[C@]12CC[C@@H]3c4ccc(OS(=O)(=O)O)cc4CC[C@H]3[C@@H]1CCC2=O [ESTRONE SULFURIC ACID] | substrate [(+)] | substrate [(+)] |
| CC[C@H](C)C(=O)O[C@H]1C[C@H](O)C=C2C=C[C@H](C)[C@H](CC[C@@H](O)C[C@@H](O)CC(=O)O)[C@H]21 [PRAVASTATIN] | substrate [(+)] | substrate [(+)] |
